In PubChem BioAssay AID1259348 (Broad Institute, 2017):
The source made the active and inactive calls.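 How the source made its calls: active means any compound with an IC50 of 100 nM or lower; inactive means the rest.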

Target: Insulin-degrading enzyme (Homo sapiens) (UniProt P14735)
Assay: IDE catalytic activity blockers, fluorogenic substrate – biochemical, kinetic mode, counter-screen for IDE exo-site inhibitor project, dose response (AID 1259348);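 on z-score: purified IDE bound to fluorescein-labelled 6b probe FL-6b at the exo-site; probe displacement lowers polarization so hits show a drop in FP signal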
Conditions: purified human IDE, fluorogenic decapeptide proteolysis; for z-score: measured here: primary FP probe displacement screen, stronger effect = lower value

Insulin-degrading enzyme (Homo sapiens), sequence (P14735 42-1019 limits assumed): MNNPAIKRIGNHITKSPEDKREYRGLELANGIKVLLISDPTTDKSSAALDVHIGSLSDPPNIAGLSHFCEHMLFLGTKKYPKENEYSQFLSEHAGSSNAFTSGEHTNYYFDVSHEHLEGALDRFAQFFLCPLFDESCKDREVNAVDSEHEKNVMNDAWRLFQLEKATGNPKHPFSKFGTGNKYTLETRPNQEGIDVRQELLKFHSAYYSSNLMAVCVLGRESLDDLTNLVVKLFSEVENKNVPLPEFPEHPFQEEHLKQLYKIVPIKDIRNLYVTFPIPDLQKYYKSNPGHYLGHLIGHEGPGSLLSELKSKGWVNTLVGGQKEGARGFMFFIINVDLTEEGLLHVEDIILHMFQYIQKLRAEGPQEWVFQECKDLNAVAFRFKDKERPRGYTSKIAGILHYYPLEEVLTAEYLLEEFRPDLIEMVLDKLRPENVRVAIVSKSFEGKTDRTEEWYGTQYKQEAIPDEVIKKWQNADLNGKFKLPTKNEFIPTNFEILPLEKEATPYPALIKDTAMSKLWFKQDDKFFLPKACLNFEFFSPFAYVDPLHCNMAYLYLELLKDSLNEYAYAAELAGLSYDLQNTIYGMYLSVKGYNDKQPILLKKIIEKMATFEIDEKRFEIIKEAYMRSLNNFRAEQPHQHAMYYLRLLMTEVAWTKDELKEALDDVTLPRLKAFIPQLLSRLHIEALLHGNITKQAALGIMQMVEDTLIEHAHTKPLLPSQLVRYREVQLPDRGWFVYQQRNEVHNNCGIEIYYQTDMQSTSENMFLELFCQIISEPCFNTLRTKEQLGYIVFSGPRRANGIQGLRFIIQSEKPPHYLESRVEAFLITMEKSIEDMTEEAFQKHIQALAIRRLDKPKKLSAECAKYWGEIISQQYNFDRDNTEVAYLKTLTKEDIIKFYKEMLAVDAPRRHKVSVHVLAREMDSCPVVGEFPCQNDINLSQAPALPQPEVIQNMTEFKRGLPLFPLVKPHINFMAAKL

## CCC(=O)N1[C@H](CO)[C@H](c2ccc(-c3ccccc3OC)cc2)[C@H]1CNC(C)=O
  IC50: 10.7 µM
  z-score: -8.24

## Cc1ccccc1-c1ccc([C@H]2[C@@H](CO)N3CCCCN(C(=O)Nc4ccc(F)cc4)C[C@@H]23)cc1
  IC50: 3 µM
  z-score: -1.63

## Cc1ccccc1-c1ccc([C@H]2[C@H](CO)N3C(=O)CN(C(=O)NC4CCCC4)C[C@@H]23)cc1
  IC50: 0.37 µM
  z-score: -20.8

## Cc1cccc(-c2ccc([C@@H]3[C@@H](CO)N4CCCCN(S(=O)(=O)c5ccccc5C)C[C@@H]34)cc2)c1
  IC50: 0.1 µM
  z-score: -20.3

## CO[C@H]1CN(C)C(=O)c2cc(NC(=O)c3ccc(Oc4ccccc4)cc3)ccc2OC[C@H](C)NC[C@H]1C
  IC50: 2.8 µM
  z-score: -14.2

## Cc1ccccc1-c1ccc([C@H]2[C@@H](CO)N3CCCCN(C(=O)Nc4ccccc4)C[C@@H]23)cc1
  IC50: 2.9 µM
  z-score: -1.37

## COc1ccc(NC(=O)N2CCCCN3[C@H](CO)[C@H](c4ccc(-c5ccccc5C)cc4)[C@@H]3C2)cc1
  IC50: 3.4 µM
  z-score: -0.82

## Cc1cccc(-c2ccc([C@H]3[C@@H](CO)N4CCCCN(C(=O)c5cccnc5)C[C@H]34)cc2)c1
  IC50: 3.4 µM
  z-score: -17

## Cc1ccccc1-c1ccc([C@H]2[C@@H](CO)N3CCCCN(Cc4cccnc4)C[C@H]23)cc1
  IC50: 4.8 µM
  z-score: -11.4

## COc1ccccc1NC(=O)N1CCCCN2[C@H](CO)[C@@H](c3ccc(-c4cccc(C)c4)cc3)[C@@H]2C1
  IC50: 7.6 µM
  z-score: -2.84

## Cc1ccccc1-c1ccc([C@H]2[C@@H](CO)N3CCCCN(S(=O)(=O)c4cn(C)cn4)C[C@@H]23)cc1
  IC50: > 100 µM (inactive)
  z-score: -3.44

## COc1ccccc1-c1ccc([C@@H]2[C@@H](C#N)N(C(=O)CN(C)C)[C@H]2CO)cc1
  IC50: 5.2 µM
  z-score: -12.4

## Cc1ccccc1-c1ccc([C@H]2[C@@H](CO)N3C(=O)CN(C(=O)Nc4ccc(F)cc4)C[C@H]23)cc1
  IC50: 0.47 µM
  z-score: -21.3

## Cc1ccccc1-c1ccc([C@H]2[C@H](CO)N3C(=O)CN(S(C)(=O)=O)C[C@@H]23)cc1
  IC50: 17.5 µM
  z-score: -1.37

## Cc1ccccc1-c1ccc(C2[C@@H]3CN(C(=O)C4CCOCC4)C[C@H]2N3)cc1 (stereo partly specified)
  IC50: 2.2 µM
  z-score: -7.71

## Cc1ccccc1-c1ccc([C@H]2[C@@H](CO)N3CCCCN(C(=O)Nc4cccc(F)c4)C[C@@H]23)cc1
  IC50: 3.8 µM
  z-score: -4.36

## COc1ccccc1-c1ccc([C@H]2[C@@H](CO)N3CCCCN(C(=O)c4ccncc4)C[C@H]23)cc1
  IC50: 4.9 µM
  z-score: -17.2

## Cc1cccc(-c2ccc([C@@H]3[C@@H](CO)N4CCCCN(CCC(F)(F)F)C[C@@H]34)cc2)c1
  IC50: 71.5 µM
  z-score: -0.68

## COc1ccccc1-c1ccc([C@H]2[C@@H](CO)N3CCCCN(C(=O)c4cccnc4)C[C@H]23)cc1
  IC50: 13.2 µM
  z-score: -12.8

## Cc1cccc(-c2ccc([C@@H]3[C@@H](CO)N4CCCCN(S(=O)(=O)c5cccs5)C[C@@H]34)cc2)c1
  IC50: 0.8 µM
  z-score: -3.77

## Cc1ccccc1-c1ccc([C@H]2[C@@H](CO)N3CCCCN(CC4CC4)C[C@@H]23)cc1
  IC50: 45 µM
  z-score: -3.48

## Cc1ccccc1-c1ccc([C@@H]2[C@H](CO)N3CCCCN(C(=O)NC4CCCC4)C[C@@H]23)cc1
  IC50: 1.55 µM
  z-score: -19

## Cc1cccc(-c2ccc([C@@H]3[C@@H](CO)N4CCCCN(Cc5cncnc5)C[C@@H]34)cc2)c1
  IC50: 11.9 µM
  z-score: -6.65

## Cc1ccccc1-c1ccc([C@H]2[C@H](CO)N3C(=O)CN(C(=O)Nc4cccc(F)c4)C[C@@H]23)cc1
  IC50: 4 µM
  z-score: -3.03

## Cc1ccccc1-c1ccc([C@@H]2[C@H](CO)N3CCCCN(C(=O)Cc4ccccn4)C[C@@H]23)cc1
  IC50: 4.9 µM
  z-score: -15.5

## CO[C@@H]1CN(C)C(=O)c2cc(NC(=O)c3ccc(Oc4ccccc4)cc3)ccc2OC[C@@H](C)NC[C@H]1C
  IC50: 2.5 µM
  z-score: -13.5

## O=C(NC1CCCC1)N1CCCCN2[C@H](C1)[C@H](c1ccc(/C=C/c3ccccc3)cc1)[C@@H]2CO
  IC50: 11.5 µM
  z-score: -13.2

## Cc1ccccc1-c1ccc([C@H]2[C@H](CO)N3C(=O)CN(C(=O)c4ccc(F)cc4)C[C@@H]23)cc1
  IC50: 3 µM
  z-score: -16.5

## Cc1cccc(-c2ccc([C@@H]3[C@@H](CO)N4CCCCN(S(=O)(=O)c5cn(C)cn5)C[C@@H]34)cc2)c1
  IC50: 0.9 µM
  z-score: -17.5

## COc1ccccc1-c1ccc([C@H]2[C@@H](CO)N3CCCCN(C(=O)NC4CCCC4)C[C@H]23)cc1
  IC50: 2.6 µM
  z-score: -19.1

## COc1ccccc1C#Cc1ccc([C@H]2[C@H](CO)N3CCCCN(C(=O)C4CCC4)C[C@@H]23)cc1
  IC50: 2.7 µM
  z-score: -12.3

## O=C(c1ccccn1)N1CC(=O)N2[C@@H](CO)[C@@H](c3ccc(C#Cc4ccccc4)cc3)[C@@H]2C1
  IC50: 5.2 µM
  z-score: -19.9

## CCS(=O)(=O)N1CCCCN2[C@H](CO)[C@@H](c3ccc(-c4ccccc4C)cc3)[C@@H]2C1
  IC50: 0.41 µM
  z-score: -18.3
